This note sets out measurements from ChEMBL document CHEMBL1201862, “PubChem BioAssay data set” (2004).

The structures appear in SMILES notation.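 Five concentrations, 48 hours, 96-well plates. GI50: concentration for 50% inhibition of growth.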 Calls of active or inactive are those of the source. No stated cut-off is given here; in the data, active = GI50 up to about 1.1 µM and inactive = higher.

What all share (experiment): NCI tumour cell line growth inhibition, 48 h
In assay [1] the test system is DLD-1.
The subject of assay [2] is HOP-18.
Assay [3] has as its system LXFL 529.
The subject of assay [4] is M19-MEL.
The test system of assay [5] is RXF 631.
The test system of assay [6] is SNB-78.
Assay [7] has as its system XF498.
Assay [8] relates to Hs-578T.

`C#C[C@@H](CCCC)OC(=O)N[C@H](C)c1ccccc1`: the GI50 is 59.4 µM (inactive) in assay [1]; > 100 µM (inactive) in assay [2]; 43.1 µM (inactive) in assay [3]; 38.5 µM (inactive) in assay [4]; 45.6 µM (inactive) in assay [5]; 94.6 µM (inactive) in assay [6]. For the same compound, the GI50 in assay [7] is 66.8 µM (inactive).
Regarding `CC(C)C(=O)NC(=S)Nc1ccc([N+](=O)[O-])cc1C#N`, the GI50 is > 100 µM (inactive) in assay [1]; > 100 µM (inactive) in assay [2]; > 100 µM (inactive) in assay [3]; > 100 µM (inactive) in assay [4]; 99.1 µM (inactive) in assay [5]; > 100 µM (inactive) in assay [6]. Moreover, the GI50 in assay [7] was > 100 µM (inactive).
Turning to `C/C(=N\NC(=S)N1CC2CCC(CC2)C1)c1nccs1`, the GI50 in assay [1] is 0.0423 µM (active); in assay [2], 0.327 µM (active); in assay [8], 6.1 µM (inactive); in assay [3], 0.0201 µM (active); in assay [4] it was 0.288 µM (active); in assay [5], 0.518 µM (active). Moreover, the GI50 in assay [6] is 10.3 µM (inactive); in assay [7] it was 2.3 µM (inactive).
Regarding `CCCCCCCCCCCCCC(=O)NCO`, the GI50 in assay [1], in assay [2], in assay [3], in assay [4], in assay [5] and in assay [6] was > 100 µM (inactive) throughout. Besides, in assay [7], the GI50 is > 100 µM (inactive).
As for `Cc1c(Cl)ccc2c1NC(=O)C2(O)C(C(=O)c1ccccc1)c1ccccc1` (configuration not stated), the GI50 in assay [1] is 83.9 µM (inactive); in assay [2], 52.4 µM (inactive); in assay [3] it was 57.3 µM (inactive); in assay [4] it was 14.7 µM (inactive); in assay [5], 62.2 µM (inactive); in assay [6] it was > 100 µM (inactive). The GI50 in assay [7] is 32.7 µM (inactive).
With `CC(=O)c1ccccc1NC(=O)C(=O)C(C(=O)c1ccccc1-c1ccccc1)C1OC(=O)c2ccccc21` (configuration not stated), the GI50 in assay [1] is 23.1 µM (inactive); in assay [2], 15.2 µM (inactive); in assay [3] it was 15.5 µM (inactive); in assay [4], 17.2 µM (inactive); in assay [5], 50.6 µM (inactive); in assay [6], 30.4 µM (inactive). For the same compound, the GI50 in assay [7] was 11.3 µM (inactive).
Regarding `N#CCC(=O)Nc1cccc(C(F)(F)F)c1`, the GI50 in assay [1] is > 100 µM (inactive); in assay [2] it was 29.2 µM (inactive); in assay [3], > 100 µM (inactive); in assay [4] it was > 100 µM (inactive); in assay [5], > 100 µM (inactive); in assay [6], > 100 µM (inactive). The GI50 in assay [7] is > 100 µM (inactive).
For `O=C1/C(=C/c2ccc(Cl)cc2)COc2ccc(Br)cc21`, the GI50 in assay [1] was > 100 µM (inactive); in assay [2], 11.6 µM (inactive); in assay [3], > 100 µM (inactive); in assay [4] it was > 100 µM (inactive); in assay [5], > 100 µM (inactive); in assay [6], > 100 µM (inactive). In addition, the GI50 in assay [7] was 69 µM (inactive).
